The text below walks through data of patent US10882845B2, “Crystal form of deuterated AZD9291, preparation method therefor, and use thereof” (TYK MEDICINES INC., priority 2017, dated 2021).

The nature of series [1]: Passage through the blood-brain barrier into the brain. The series is classed as in vivo. The settings on record: in the body. The source says: At present, some deuterated AZD9291 compounds have been reported in CN104140418B and CN105237515A, but no crystal forms of the pharmaceutically acceptable salt of deuterated AZD9291 have been reported. A crystal form is a solid state of a drug. The study of the drug crystal form is the study of the basic state of the drug. It is impossible to find a crystal form of a drug (solid material) that is more suitable for treating the disease, unless having a full and comprehensive understanding of the crystal form of the chemical drug. The crystal form of a drug can affect physical and chemical properties of the drug, and directly affect the clinical basis of the drug to play a role in the treatment of disease. At the same time, due to the solubility of some drugs, such drugs shall be made into a pharmaceutically acceptable salt, which can greatly improve its solubility and improve the absorption and utilization of drugs. The applicant has been engaged in the research of drugs for lung cancer, started drug research on EGFR targets very early, and has obtained a series of research results6, such as patent applications CN102659692, U.S. Ser. No. 08/916,572, CN107382879, WO2017219500 and WO2018050052. […] Therefore, it has no effect on tumors metastasized to the brain. […]

A short description of series [2]: Stability at room temperature. Type of series: physicochemical. The settings on record: for Purity (HPLC) / character (visual inspection) / hygroscopicity (visual inspection): room temperature. From the text:
The crystal form of the compound of the formula (I) or the formula (II) obtained by the method 1 or the method 2 of the present invention is not changed in moisture absorption or the like after being left at room temperature for 1 month. […] Its purity was as high as 99.83%, and the content of each single impurity was below 0.1%, which was suitable for the subsequent development of active pharmaceutical ingredient and preparations as well as subsequent pharmacokinetic experiments and zoological experiments.
The crystal form of deuterated AZD9291 mesylate prepared in the present invention was placed in a laboratory at room temperature, and the stability at room temperature was examined.

Series [3] in a line: Accelerated stability test (drug accelerated stability test chamber, 40° C., relative humidity 75%). The settings on record: 75% RH. Type of series: physicochemical.
Experiment in series [4]: as above
The series is classed as physicochemical. The note with it: 75% RH. As for the experimental part: The stability of the crystal form of the compound represented by the formula (I) or the formula (II) was further measured, and the apparatus used was a drug accelerated stability test chamber; the accelerated test condition was 40° C., and the relative humidity was 75%. After an accelerated test for six months in the drug accelerated stability test chamber was completed, a sample of the crystal form of the compound of the formula (I) or the formula (II) was obtained and subjected to X-ray powder diffraction analysis, and the obtained X-ray powder diffraction pattern was as shown in FIG. 2.
The source holds these as a separate data set.

A further series is described as follows: in vivo. The settings on record: rat, po. The source says: Moreover, a single impurity is below 0.1%, which is in line with requirements for the development of API and CMC.
The high bioavailability of oral administration proves that this crystal form is suitable for the development of oral preparations.

Where a name gives a salt, the structure may show the parent alone.

For `C=CC(=O)Nc1cc(Nc2nccc(-c3c[nH]c4ccccc34)n2)c(OC)cc1N(C)CCN(C)C` [AZ5104], the “passage through the blood-brain barrier” value in series [1] is reported as “cannot pass through the blood-brain barrier”.

Turning to `C=CC(=O)Nc1cc(Nc2nccc(-c3cn(C)c4ccccc34)n2)c(OC)cc1N(C)CCN(C)C` [compound of formula III], the “passage through the blood-brain barrier” value in series [1] is given as “can enter the brain through the blood-brain barrier”.

On to `[2H]C([2H])([2H])n1cc(-c2ccnc(Nc3cc(NC(=O)C=C)c(N(C)CCN(C)C)cc3OC)n2)c2ccccc21` [deuterated AZD9291 mesylate crystal form], for which the “change in moisture absorption or the like” value in series [2] (left at room temperature for 1 month) is “not changed”. The “Purity (HPLC)” value in series [2] (day 0) was found to be 99.73%; in series [2] (day 15) it was 99.70%; in series [2] (day 30), 99.74%. Further, the “character (visual inspection)” value is on record as “off-white powder” in series [2] (day 0); “off-white powder” in series [2] (day 15); “off-white powder” in series [2] (day 30); “off-white” in series [3] (month 0); “off-white,” in series [3] (month 1); “off white,” in series [3] (month 2). In addition, the “character (visual inspection)” value in series [3] (month 3), in series [3] (month 4) and in series [3] (month 6) was “off white,” in each case. Besides, the “hygroscopicity (visual inspection)” value is “(no hygroscopicity)” in series [2] (day 15); “(no hygroscopicity)” in series [2] (day 30); “no” in series [3] (month 1); “no” in series [3] (month 2); “no” in series [3] (month 3); “no” in series [3] (month 4). Moreover, the “hygroscopicity (visual inspection)” value in series [3] (month 6) is recorded as “no”. Moreover, the “compound purity (HPLC)” value in series [3] (month 0), in series [3] (month 1), in series [3] (month 2), in series [3] (month 3), in series [3] (month 4) and in series [3] (month 6) was 99%, each time. The “deuteration rate (HNMR)” value in series [3] (month 0), in series [3] (month 1), in series [3] (month 2), in series [3] (month 3), in series [3] (month 4) and in series [3] (month 6) was “rate 99%” throughout. Besides, the “crystal form (X-ray powder diffraction)” value in series [4] (month 6, listed as crystal form of the compound represented by the formula (I) or the formula (II)) is recorded as “no crystal”; in series [4] (month 6, listed as crystal form of the present invention), “maintained”. The compound further yielded an AUC in the series “in vivo” of 1270 ng·h/mL. The bioavailability in the series “in vivo” was 30.9%. Besides, in the series “in vivo”, the highest blood concentration is 117 ng/mL.

In general, AUC refers to the area under the concentration-time curve, a measure of exposure. What is called bioavailability is dose-corrected exposure relative to a reference, in per cent. A lower bioavailability goes with poor availability.
